Experimental findings from EP1818063A1, “MEDICINE FOR TREATMENT OF DISEASE CAUSED BY HYPERSTIMULATORY CYTOTOXICITY AND THERAPEUTIC METHOD” (Japan Science and Technology Agency, priority 2004, dated 2006) are described below.

Where two headings read alike, the source gives them in different places.

Assay type in all cases: cell-based, mouse
Test [1] has as its system volume-sensitive Cl- channel. The test can be described thus: Whole-cell patch-clamp of current activated by hyposmotic stimulation. Particulars: primary cultured cerebral cortical neurons. The procedure:
The cerebral cortex of fetuses removed from mice on day 16 of pregnancy was plated on cover-glass slips after digestion with papain. To prevent growth of glias and other proliferative cells, the cultures were supplemented with AraC (4 µM) 2 days after plating and a neuron-rich (>95%) culture system was prepared. A whole-cell patch-clamp technique was applied to primary cultures of cerebral cortical neurons (5-8 days after incubation). The intracellular and extracellular solutions used for the patch-clamp experiments were composed of the following. Intracellular solution (300mOsm, pH 7.4): 24 mM NMDG-C1, 100 mM NMDG-aspartate, 2 mM MgCl2, 5 mM Na2ATP, 0.3 mMNa3 GTP, 1 mM EGTA, 10 mM HEPES. […] Osmolality was adjusted by adding mannitol. Current activation was observed overtime by applying a potential of ±60 mV (500 ms duration, every 15 s) from a holding potential of -40 mV. To observe current kinetics, step pulses from -100 mV to +100 mV in 20 mV increments were applied (0.5 s duration) and current response was observed. The recordings were plotted in a current-voltage curve.
Background: Patch clamp records ionic current or voltage across a cell membrane.

For test [2], the system named is primary cultured cerebral cortical neurons. The test can be described thus: Necrotic neuronal cell death by LDH release after NMDA exposure. As for the experimental part: (§1) In order to access effects of volume-sensitive Cl- channel blocker on neuronal swelling or necrosis caused by hyperexcitation, primary cultures of cerebral cortical neurons isolated from fetuses removed from mice on day 16 of pregnancy were used. The primary cultured cerebral cortical neurons were cultured in a 5% CO2 incubator at 37°C, using Dulbecco's medium supplemented with 10% fetal bovine serum, streptomycin, and penicillin. To visualize dendrites, the cultured cerebral cortical neurons were transfected with EGFP gene on day 3 of culture, using a […] phosphate method. As an excitotoxic stimulant, Earle's Balanced Salt Solution (EBSS; commercially available as GIBCO#14155-063) was used that contained 30 µM N-methyl-D-aspartate (NMDA) and 30 µM glycine, supplemented with 2 mM CaCl2 and 0.5 mM MgCl2. To confirm activation of volume-sensitive Cl- channel, an experiment was conducted using a perforated-vesicle patch-clamp technique. After forming a gigaohm seal on the membrane of the varicosities exposed to excitotoxic stimulation, recording electrodes were raised to record currents from a single varicosity patch membrane. The intracellular and extracellular solutions used for the patch-clamp experiment were composed of the following. Extracellular solution: 124 mM N-methyl-D-glucamine (NMDG), 124 mM HCl, 20 mM TEA-Cl, 4 mM MgCl2, 0.33 mM NaH2PO4, 0.5 mM EGTA, 10 mM 2-[4-(2-hydroxyethyl)-1-piperazinyl] ethanesulfonic acid (HEPES), 2 mM 4-aminopyridine (4-AP), 5.5 mM glucose, 270mOsm, pH7.4. Intracellular solution: 145 mM KCl, 10 mM HEPES, 1 mM EGTA, 1 mM MgCl2, 0.3 mg/ml nystatin, 300mOsm, pH 7.4.
(§2) Necrotic neuronal cell death was assessed by PI staining in which the nuclei are stained with a propidium iodide (PI) dye that enters the cells through damaged portions of the plasma membrane, or by measuring the level of extracellular lactate dehydrogenase (LDH) released from dead cells.
On the technique in general: Release of lactate dehydrogenase indicates damage to the cell membrane.

For test [3] the test system is unchanged. Briefly: Varicosity formation (neuronal swelling) during excitotoxic NMDA stimulation. The procedure: as §1
Neuronal swelling was assessed as a proportion of varicosity-forming cells in the total number of neurons. After 20-minute excitotoxic stimulation, the cells were fixed with 4% paraformaldehyde, and the number of cells in each cell group was counted with a fluorescent microscope.
Figure 7A is micrographs showing excitotoxic swelling of neurons induced by glutamate receptor agonist (30 µM NMDA). Primary cultured cerebral cortical neurons were visualized through EGFP expression. […] Figure 7B represents inhibitory action of Cl- channel blocker on varicosity formation. In the Figure, asterisk indicates a level of significant difference (p<0.05) from data on NMDA (before application of blocker).

The subject of test [4] is EGFP-transfected primary cultured cerebral cortical neurons. Briefly: Recovery from varicosities after removal of excitotoxic (NMDA) stimulation. To be noted: 60 minutes after 20-minute 30 µM NMDA stimulation; concentration not given. As for the experimental part: Primary cultured cerebral cortical neurons were transfected on day 3 of culture with a plasmid containing green fluorescent protein EGFP gene, using a […] phosphate method. […] Cells on day 2-6 of transfection were used for the experiment.
The cells were subjected to an excitotoxic stimulant by 20-minute exposure to low-magnesium HEPES buffer (composition: 142 mM NaCl, 2.5 mM KCl, 0.5 mM EGTA, 0.5 mM MgCl2, 0.33 mM NaH2PO4, 10 mM HEPES, 5.5 mM glucose, 0.03 mM glycine) containing NMDA (30 µM). After stimulation, the cells were washed three times with normal HEPES buffer (composition: 140 mM NaCl, 2.5 mM KCl, 2 mM CaCl2, 2 mM MgCl2, 10 mM HEPES, 5.5 mM glucose, 35 mM mannitol). The cells were then incubated at 37°C in the same buffer, and fixed with 4% paraformaldehyde at different time points (0, 15, 30, 60 min).
As in Example 4, EGFP-transfected primary cultured cerebral cortical neurons were used. According to the procedure of Example 4, the cells were subjected to excitotoxic stimulation, and incubated with normal HEPES buffer supplemented with various kinds of medicines. After 60 minutes, the cells were fixed with 4% paraformaldehyde, and the number of varicosity-bearing cells was counted with a fluorescent microscope as a percentage of the total number of counted neurons.

Test [5] deals with cerebral cortical neurons. Briefly: Volume regulation (recovery from swelling) under hypotonic conditions, soma cross-sectional area by two-photon microscopy. To be noted: 80 µM; hyposmotic solution 200mOsm.
Description: Primary cultured neurons on day 5-8 of culture were loaded with calcein-AM to visualize the cells, and X-Y cross sectional images were captured over time with a two-photon laser microscope. Cell size was assessed based on changes in cross sectional area of the soma. An area ratio at each time point was calculated and plotted on a graph, with the area at the start of experiment given as 1 (Figure 2B). The solution used for the experiment had the following composition: 90 mM NaCl, 2.5 mM KCl, 5 mM HEPES, 2 mM MgCl2, 2 mM CaCl2, and 10 mM glucose.
Test [6] concerns primary cultured cerebral cortical neurons. The test can be described thus: Necrotic neuronal cell death by PI staining after NMDA exposure. The procedure: as §1, §2
For test [7], the system named is volume-sensitive Cl- channel. Briefly: Perforated-vesicle patch-clamp of single-channel currents on the varicosity membrane. The procedure: In order to access effects of volume-sensitive Cl- channel blocker on neuronal swelling or necrosis caused by hyperexcitation, primary cultures of cerebral cortical neurons isolated from fetuses removed from mice on day 16 of pregnancy were used. The primary cultured cerebral cortical neurons were cultured in a 5% CO2 incubator at 37°C, using Dulbecco's medium supplemented with 10% fetal bovine serum, streptomycin, and penicillin. To visualize dendrites, the cultured cerebral cortical neurons were transfected with EGFP gene on day 3 of culture, using a […] phosphate method. As an excitotoxic stimulant, Earle's Balanced Salt Solution (EBSS; commercially available as GIBCO#14155-063) was used that contained 30 µM N-methyl-D-aspartate (NMDA) and 30 µM glycine, supplemented with 2 mM CaCl2 and 0.5 mM MgCl2. To confirm activation of volume-sensitive Cl- channel, an experiment was conducted using a perforated-vesicle patch-clamp technique. […]
After forming a gigaohm seal on the membrane of varicosities formed by excitotoxic stimulation (Figure 8A), the recording electrodes were lifted up to excise a single varicosity, with which recordings of volume-sensitive Cl- currents were made (Figure 8B). […] These properties of the recorded currents coincided with those of the volume-sensitive Cl- channel.

Setting [8] is: 40 µM co-applied with NMDA for 3 hours.
Where [9] appears, read: 100 µM co-applied with NMDA for 3 hours.
The mark [10] stands for this setting: 100 µM during 20-minute 30 µM NMDA stimulation.

Consider `O=S(=O)(O)c1cc(N=C=S)ccc1C=Cc1ccc(N=C=S)cc1S(=O)(=O)O` [DIDS], for which, in test [1] (400 µM), the “inhibition of current activated by hyposmotic stimulation” value (“inhibition of current activated” for short) was “inhibited”.

Turning to `O=C(O)c1cc([N+](=O)[O-])ccc1NCCCc1ccccc1` [NPPB], in test [2] (setting [8]), the “level of LDH release” value is on record as “significantly inhibited”. Further, the “number of varicosity-forming neurons” value in test [3] (40 µM during 20-minute 30 µM NMDA stimulation) was “decreased significantly”. In test [4], the Recovery from varicosities result is recorded as “significantly inhibited”. Further, in test [5], the volume regulation entry is recorded as “inhibited”. Moreover, the “number of PI positive cells” value in test [6] (setting [8]) is “decreased significantly”. Also, in test [1] (80 µM), the “inhibition of current activated” value was “inhibited”. Besides, the “single-channel events observed on the varicosity” value in test [7] (80 µM, 3 minutes after application) was “blocked”. In addition, the “blocking effect after removal” value in test [7] (3 minutes after removal of 80 µM) is reported as “reversible”.

As for `CN1CCc2cc3c(cc2[C@H]1[C@@H]1OC(=O)c2c1ccc1c2OCO1)OCO3` [bicuculline], the “level of LDH release” value in test [2] is recorded as “No inhibiting effects”. In test [3], the “number of varicosity-forming neurons” value is listed as “no significant inhibiting effects”. For the same compound, the “number of PI positive cells” value in test [6] was “no significant inhibiting effects”.

Turning to `O=C(CCc1ccc(O)cc1)c1c(O)cc(O)cc1O` [phloretin], in test [2] (setting [9]), the “level of LDH release” value is reported as “significantly inhibited”. Moreover, the “number of varicosity-forming neurons” value in test [3] (setting [10]) is given as “decreased significantly”. Moreover, in test [4], the Recovery from varicosities entry is “significantly inhibited”. Besides, the “number of PI positive cells” value in test [6] (setting [9]) is listed as “decreased significantly”. In test [1] (100 µM), the “inhibition of current activated” value is given as “inhibited”.

In the case of picrotoxin, the “level of LDH release” value in test [2] (setting [9]) was “No inhibiting effects”. Moreover, in test [3] (setting [10]), the “number of varicosity-forming neurons” value is “no significant inhibiting effects”. In addition, in test [6] (setting [9]), the “number of PI positive cells” value was “no significant inhibiting effects”.
